Laboratory results as given in a melting point compilation (Tetko et al.).

melting point [°C]	Compound
16	CCCCCCCCCCCCCCc1ccccc1
161	CC1Cc2ccccc2N1NC(=O)c1ccc(Cl)c(S(N)(=O)=O)c1 (configuration not stated)
82	Cn1cc(Cl)c(C=O)n1
155 to 156	CCOC(=O)C(C#N)=NNc1cccc([N+](=O)[O-])c1
140	c1ccc2cc(SSc3ccc4ccccc4c3)ccc2c1
131 to 134	COc1cc(C(O)C(=O)O)ccc1O (configuration not stated)
89 to 93	COc1ccc(-c2csnn2)cc1
62	FC(F)(F)c1cc(Cl)c2cccc(Cl)c2n1
96	CCOC(=O)CN1CCN(C(=O)C=Cc2cc(OC)c(OC)c(OC)c2)CC1
10	NCc1ccccc1
28	OCCCCCCCCCCl
147	O=C(O)c1c(Br)cc(Br)c(O)c1Br
88	O=C(C=Cc1ccsc1)c1ccccc1
156 to 157	NCc1ccccc1-n1cccc1
-112	C=COCC(C)C
210 to 212	O=C(O)c1cc(Cl)ccc1N=NC1SC(=S)NC1=O (configuration not stated)
153 to 154	CC(C)(NO)C(=NO)c1ccccc1
46 to 47	COC(=O)c1cccc(CN2CCOCC2)c1
122	O=[N+]([O-])c1ccc(NN=C(Cc2ccccc2)C(O)Cc2ccccc2)cc1 (configuration not stated)
238	N#C/C(=N/Nc1cccc(C(F)(F)F)c1)c1nc2ccccc2c(=O)[nH]1
111 to 113	CCOC(=O)C12CCC(C(=O)OCC)(CC1=O)C(=O)C2
172	Cc1nc(Cl)c(C(N)=O)c(C)c1Cl

melting point [°C]	Compound
241	O=Cc1c[nH]c2ccc(OCc3ccccc3)cc12
76 to 79	CC(=O)Oc1ccc([N+](=O)[O-])cc1
99 to 100	O=C(Oc1c(F)c(F)c(F)c(F)c1F)c1ccnc(N2CCSCC2)c1
181	COc1ccc(C(=O)c2nn(-c3ccccc3)/c(=N\N=Cc3ccccc3Cl)s2)cc1
25	Fc1nc(F)c(Cl)c(F)c1Cl
72	ON=Cc1cccc(Br)c1
156	NCC(=O)NO
103 to 105	O=C(OCc1ccccc1Cl)ON1C(=O)CCC1=O
19	CCCCCCCCCCC(C)O (configuration not stated)
50	CCCCCCCCCCCCCCCCCCCCCC(=O)OCC
82 to 83	O=Cc1ccc(-n2cccn2)cc1
271 to 274	O=C(O)c1cc(Br)c(O)c(Br)c1
177	c1ccc2c(-c3nnc(-c4cccc5ccccc45)o3)cccc2c1
155	Cc1ccc2c(c1)C(c1ccccc1)C(c1ccccc1)N2 (configuration not stated)
45	C=C1C(=O)C2(C)CCC1C2(C)C (configuration not stated)
105	Cc1c(C#N)c2ccccc2n1C
294	CC1(C)CCC2(C(=O)O)C(O)CC3(C)C(=CCC4C5(C)CCC(O)C(C)(C=O)C5CCC43C)C2C1 (configuration not stated)
133 to 137	O=C(O)c1ccc2c(c1)OCCO2
99	NNc1c(F)cc(F)cc1F
42	Fc1cccc(CBr)c1C(F)(F)F
74 to 79	O=C(Cl)c1ncoc1-c1ccccc1
188	COc1ccc(C=CC(=O)c2ccc(O)cc2)cc1

melting point [°C]	Compound
223 to 228	NC(=S)c1ccc(-c2csnn2)cc1
30	CCCCCCCCCCCCCCCCCC[Si](C)(C)Cl
54 to 57	CC(O)C(N)CO (configuration not stated)
69	CC(C)c1ccc2cc(C(C)C)ccc2c1
208 to 211	CCOC(=O)c1ccccc1C(=C1C=C(Br)C(=O)C(Br)=C1)c1cc(Br)c(O)c(Br)c1
216	N=C(N)c1ccc(Oc2ccc(C(=N)N)cc2)cc1
44	N#CC1CC2CCC1C2 (configuration not stated)
231 to 232	CC(=C\OC(=O)c1ccccc1)/C(C)=N/OC(=O)c1ccccc1
-60	CC(C)(C)c1ccccc1N
52	CCC(C(=O)O)c1ccc(CC(C)C)cc1 (configuration not stated)
28	CCCCCCCCCCCCCCCCCC(=O)OC(C)C
233	Cc1nc(CC#N)sc1/N=N/c1ccc([N+](=O)[O-])cc1
118 to 119	CC(=O)/C=C/c1oc2ccc(Cl)cc2c1-c1ccc(C)o1
53 to 59	CCOC(=O)CC(=O)c1ccncc1
218	Cn1[nH]c(N)c2c(=O)ccnc1-2
47	CCOc1ccc(C(C)O)cc1 (configuration not stated)
120 to 123	Cn1nc(C2CC2)cc1N
31	Cc1ccc(Br)c([N+](=O)[O-])c1
254	O=C(O)Cc1ccc(CC(=O)O)cc1
170	CC(=O)n1nc2oc3ccccc3cc-2c1=O
90 to 93	O=S(=O)(c1ccccc1)n1ccc2cc(Br)ccc21
-65	CC(=O)OC1CCCCC1

melting point [°C]	Compound
172	CC/C(=C(/CC)c1ccc(O)cc1)c1ccc(O)cc1
133	C=Cc1cccc(C(N)=O)c1
186	CC1CCC2(C)CCC3(C)C(=CCC4C5(C)CCC(O)C(C)(C)C5CCC43C)C2C1C (configuration not stated)
-108	CCCCC1CCCC1
55 to 61	O=C(Cl)c1cccc2c1OCC2
83	O=C(C=Cc1ccc(OCCCl)cc1)c1ccc(OCCCl)cc1
46 to 50	ClCC1CN(Cc2ccccc2)CCO1 (configuration not stated)
178 to 180	COc1ccc(-n2c(S)nnc2-c2ccc(OC(F)(F)F)cc2)cc1
80	NCc1cccc(-c2ccsc2)c1
269 to 271	c1coc(CNc2ncnc3[nH]cnc23)c1
75	CC(=O)N(C(C)=O)c1ccc(N=Nc2ccccc2C)cc1C
128 to 130	NC(=S)C1CCN(C(=O)OCc2ccccc2)CC1
255 to 257	Cc1nnc(S)n1-c1ccc(OCc2ccccc2)cc1
236	CN(C)c1ccc(N=Nc2ccc([N+](=O)[O-])cc2)cc1
118	COc1ccc(-c2ccccc2)cc1NC(=O)C(F)(F)C(F)(F)C(F)(F)C(F)(F)C(F)(F)C(F)(F)C(F)(F)C(F)(F)F
78 to 80	O=S(=O)(c1ccccc1)n1ccc2ccccc21
51	O=C(OCCC(OC(=O)c1ccccc1)c1ccccc1)c1ccccc1 (configuration not stated)
83 to 93	CCCCc1ccc(/C=N/c2ccc(C(C)=O)cc2)cc1
87 to 89	OCc1ccc(-n2ccnc2)cc1
257 to 259	NC(=O)NN=Cc1cccc2c(Br)cccc12
135 to 136	COC(=O)C1(C(=O)OC)Cc2cc(C)ccc2C(=O)O1
66	O=Cc1cc(-c2cccs2)on1

melting point [°C]	Compound
66 to 67	N#Cc1ccc(-c2ccco2)cc1
264 to 266	CSc1nc(=O)[nH]c2c1CCCC2
184	Cc1ccc2cnn(C)c2n1
162	Oc1ccccc1CNCc1ccccc1O
105 to 107	Sc1c(Cl)c(Cl)cc(Cl)c1Cl
139 to 140	O=Cc1c(Br)sc2ccc(Cl)cc12
183 to 185	Nc1cnc2ccccc2c1N
61	Cc1ccc(C)c(OCCCC(C)(C)C(=O)O)c1
48	COc1ccc(O)cc1C(C)(C)C
137	O=C1c2ccccc2S(=O)(=O)N1CCCCN1CCN(c2ncccn2)CC1
-35	CCCCCC(C)=O
87 to 90	OCc1csc(-c2cccs2)n1
300	Nc1oc2ccc(Cl)cc2c(=O)c1C=O
87	Cc1nc2cc3ccccc3cc2o1
88	O=C(OCC(=O)N1CCCCC1)c1ccccc1
251 to 255	O=C(O)CSc1ccncc1
78.8	CCCCCCCC(=O)NO
20	CCCCCCCCc1ccc(N)cc1

Compound	melting point [°C]
CC(Br)C(C)Br (configuration not stated)	-24
CCOC(=O)C(SP(=S)(OC)OC)c1ccccc1 (configuration not stated)	17.5
ClCc1noc(-c2ccsc2)n1	69 to 70
CN1CCC(N(Cc2cccs2)c2ccccc2)CC1	95
C1CCN(C2CCNCC2)CC1	68
CCCCCCCCCCCCOC(=O)c1ccccc1C(=O)OCCCCCCCCCCCC	21 to 23
CC#CC1(O)CCC2C3CC(C)C4=CC(=O)CCC4(C)C3CCC21C (configuration not stated)	102
C#CC1(O)CCC2C3CCC4=CC(=O)CCC4=C3C=CC21C (configuration not stated)	169
CCOC(=O)C1(C)OC(=O)N(c2cc(Cl)cc(Cl)c2)C1=O (configuration not stated)	113
CC(=O)Nc1c(Br)cc(Br)cc1C(=O)c1ccccc1	156
NCCP(=O)(O)O	296
CCOC(=O)C(C)(C)C1=CCC2(C)C(CCC3C2CCC2(C)C(OCc4ccccc4)CCC32)C1 (configuration not stated)	138
COc1cc2c(c(O)c1OC)C(C)NCC2 (configuration not stated)	160
COc1cccc(C=O)c1OC	52
C=CCc1ccc2c(c1)OCO2	11.2
C1CCC2NCCCC2C1 (configuration not stated)	37.5 to 45
CCCCCCCCCCCCCCCCCCOP1OCC2(CO1)COP(OCCCCCCCCCCCCCCCCCC)OC2 (configuration not stated)	41.5
O=C(O)c1cc(Cl)nc(Cl)c1	210 to 211
CC12CCC3c4ccc(OC(=O)N(CCCl)CCCl)cc4CCC3C1CCC2O (configuration not stated)	104
Cc1cccc(C)c1NC1=NCCCS1	140
O=C(Cl)c1ccccc1	-1
C=CC(=O)OCCCCO	-112
[N-]=[N+]=Nc1ccc(Br)cc1	20
CNc1ccc2oc(CC3OC4(CCC3C)OC(C(C)C(=O)c3ccc[nH]3)C(C)CC4C)nc2c1C(=O)O (configuration not stated)	182
CC(C)c1cccc(C(C)C)c1O	18
COC(=O)C=Cc1ccc(Cl)cc1	76
